# In patent US20260242392A1, “ARYL TRICYCLIC STING AGONISTS AND USE THEREOF” (SHENZHEN GENUINE BIOTECHNOLOGY CO., LTD., priority 2023, published 2026):
# Where two headings read alike, the source gives them in different places.
# Experiments:
# [1] = tested on: mouse colorectal cancer CT26 cell line; experiment: Subcutaneous tumor model of female Balb/c mice transplanted with mouse colorectal cancer CT26 cell line; assay type: in vivo; details: separate CT26 model cohort, 20 mg/kg
# Experimental: Pharmacodynamic Evaluation of Test Compounds in a Subcutaneous Tumor Model of Female Balb/c Mice Transplanted with Mouse Colorectal Cancer CT26 Cell Line
# CT-26 tumor cells were cultured in a suitable culture medium. Cells in the exponential growth phase were collected and subcutaneously inoculated into the right back of experimental mice. Tumor growth was observed regularly after inoculation. When the tumor reached an average volume of approximately 100 mm^3, mice were randomly grouped based on tumor size and body weight for administration. The day of grouping was defined as Day 0. Test compounds were administered orally once weekly for 4 times. The efficacy was evaluated by calculating the tumor growth inhibition (TGI) based on the tumor volume, and the safety was evaluated based on the changes in animal body weight and death. […] All test compounds were well-tolerated.
# [2] = Pharmacokinetic (PK) study in ICR mice, IV and PO; details: for AUC(0-t) / Vd / clearance / half-life / Cmax / bioavailability: ICR, mouse, plasma; for oral availability: oral administration at 5 mg/kg
# Experimental: (§1) The doses for IV and PO were 2 mg/kg and 5 mg/kg, respectively. Blood was collected at different time points after IV and PO administration and placed in heparinized tubes. Plasma was separated and frozen in a −20° C. refrigerator. Plasma was processed and then analyzed by LCMS/MS. Pharmacokinetic parameters of drug administration were calculated using a non-compartmental model in WinNonlin 8.2 software.
# [3] = tested on: human non-small cell lung cancer; details: in combination with standard chemotherapy; cited from earlier work
# human STING protein = human STING protein (Homo sapiens, UniProt Q86WV6); details: cited from earlier work
# [4] = mouse; for oral availability: ICR, in vivo, 5 mg/kg; for clearance in vivo compared to MAS-2: po
# Experimental: as §1
# in vivo = details: ICR, mouse
# Experimental: as §1
# Sting-HAQ = molecular target: T1, Sting-HAQ (Homo sapiens, UniProt Q86WV6, G230A/H232R/R293Q/R71H); experiment: HEK293-HAQ Luc reporter gene assay (Steady-Glo luciferase); assay type: cell-based; details: 24 h incubation; read-out: HEK293-HAQ Luc Report Assay (24 h) EC50
# T1 construct: host or cells: HEK293-HAQ Luc reporter cell line
# Experimental: Test Principle: The HEK293-HAQ Luc reporter cell line utilizes the chemiluminescent reaction property of luciferase binding to its substrate beetle luciferin. The regulatory elements of the Sting-HAQ gene transcription are cloned upstream/downstream of the firefly luciferase gene to construct a luciferase recombinant plasmid. The recombinant plasmid is then transfected into HEK293 cells. After treatment with compounds, the cells are lysed, and the luciferase activity is measured using the Steady-Glo® detection system (Cat #E2550) manufactured by Promega Corporation. The effect of compounds on the Sting-HAQ regulatory elements is determined based on the level of luciferase activity. The Steady Glo® Luciferase Assay System enables high-throughput evaluation of the degree of activation of reporter cell lines by compounds through the activity of luciferase in mammalian cells, and provides long-term stable luminescence when used with reporter cell lines. The detection system can sustain a signal half-life of more than 5 hours in the test cell culture medium, enabling uniform measurement without sample pretreatment.
# Test Method: Complete medium (DMEM+10% FBS+1% P/S) was prepared. The Hek293-HAQ Luc reporter cell line was resuscitated and passaged twice. Cells in logarithmic growth phase were collected by centrifugation, counted, and resuspended to an appropriate concentration. The cell suspension was seeded into a 96-well plate at a density of 20000 cells/well, with 100 µL of the cell suspension added per well. Test compounds were prepared into stock solutions with DMSO, and serially diluted 3-fold with DMSO starting from the highest concentration of 100 mM to obtain 9 concentration gradients. The test compounds were diluted 47.62-fold with culture medium, and 5 μL of each dilution was added to the 96-well plate containing 100 μL of cells. To Min control wells were added 5 μL of DMSO-cell culture medium mixture (with a final DMSO concentration of 0.1%), while Max control wells received 5 μL of a positive reference compound. The plate was incubated at 37° C. in an incubator with 5% carbon dioxide and relative humidity above 90% for 24 h. Subsequently, 75 μL/well of […] was added to terminate the reaction. After shaking at 305 rpm for 10 min, the plates were detected on Envision. The […] value RLU of each well was read, and the activation rate was calculated according to the formula: Activation %=(Sample−Ave_L)/(Ave_H−Ave_L)×100, where Ave_L: RLU Min (0.1% DMSO), Ave_H: RLU Max (positive reference compound). The activation rate, Activation % (Y), corresponding to each concentration (X), was entered in EXCEL. The half-maximal effective concentration EC50 value of each compound was calculated according to the built-in four-parameter fitting formula Y=Bottom+(Top−Bottom)/(1+10^((LogEC50−X)*HillSlope)) using the XLfit plug-in.
# [5] = mouse PK, injection 2 mg/kg and oral 5 mg/kg
# Chain of human STING protein (Q86WV6 whole entry): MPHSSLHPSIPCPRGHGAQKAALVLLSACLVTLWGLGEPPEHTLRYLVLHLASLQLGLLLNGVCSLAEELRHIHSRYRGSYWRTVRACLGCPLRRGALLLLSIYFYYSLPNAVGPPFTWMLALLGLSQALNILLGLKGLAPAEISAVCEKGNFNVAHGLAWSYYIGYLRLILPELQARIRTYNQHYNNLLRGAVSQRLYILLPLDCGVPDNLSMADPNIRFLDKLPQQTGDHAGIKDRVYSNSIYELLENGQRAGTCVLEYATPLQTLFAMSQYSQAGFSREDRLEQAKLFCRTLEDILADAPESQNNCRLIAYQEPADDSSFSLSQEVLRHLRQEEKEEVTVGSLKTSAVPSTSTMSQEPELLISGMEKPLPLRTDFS
# T1 sequence (Q86WV6 whole entry R71H/G230A/H232R/R293Q): as the sequence (Q86WV6 whole entry) above, with R71H, G230A, H232R, R293Q counted along it
smiles,measurement,setting,value
CC[C@@H](CC(=O)c1cc2c(cc(OC)c3ocnc32)s1)C(=O)O [Compound 51],tumor growth inhibition (TGI),[1],99%
same,AUC(0-t),"[2]; iv, 2 mg/kg",3240 ng·h/mL
same,Vd,"[2]; iv, 2 mg/kg",1.28 L/kg
same,clearance,"[2]; iv, 2 mg/kg",10.2 mL/min/kg
same,half-life,"[2]; iv, 2 mg/kg",262 min
same,AUC(0-t),"[2]; po, 5 mg/kg",8550 ng·h/mL
same,Cmax,"[2]; po, 5 mg/kg",4550 ng/mL
same,bioavailability,"[2]; po, 5 mg/kg",105%
same,half-life,"[2]; po, 5 mg/kg",186 min
same,clearance in vivo compared to MAS-2,[2]; [5],lower clearance
same,exposure in vivo compared to MAS-2,[2]; [5],higher exposure
same,oral availability,[2]; mouse PK,100%
CC[C@@H](CC(=O)c1cc2c(cc(OC)c3oc(C)nc32)s1)C(=O)O [Compound 53],tumor growth inhibition (TGI),[1],101%
Cc1ccc2c(=O)c3cccc(CC(=O)O)c3oc2c1C [DMXAA],clinical efficacy,[3],failed to show significant efficacy
same,activation of human STING protein,human STING protein,fails to activate
COc1cc2sc(C(=O)CC(C)C(=O)O)cc2c2ncoc12 (centres unmarked) [Example 12],oral availability,[4],100%
same,clearance in vivo compared to MAS-2,[4],lower clearance
same,AUC(0-t),"in vivo; iv, 2 mg/kg",1570 ng·h/mL
same,Vd,"in vivo; iv, 2 mg/kg",0.49 L/kg
same,clearance,"in vivo; iv, 2 mg/kg",21.2 mL/min/kg
same,half-life,"in vivo; iv, 2 mg/kg",90 min
same,AUC(0-t),"in vivo; po, 5 mg/kg",4060 ng·h/mL
same,Cmax,"in vivo; po, 5 mg/kg",6020 ng/mL
same,bioavailability,"in vivo; po, 5 mg/kg",104%
same,half-life,"in vivo; po, 5 mg/kg",120 min
"COc1cc2sc(C(=O)C[C@H](C)C(=O)O)cc2c2ncoc12 [Example 46, (S)-4-(4-methoxythieno[2′,3′:5,6]benzo[1,2-d]oxazol-7-yl)-2-methyl-4-oxobutanoic acid]",oral availability,[4],64.6%
same,clearance in vivo compared to MAS-2,[4],lower clearance
same,AUC(0-t),"in vivo; iv, 2 mg/kg",3540 ng·h/mL
same,Vd,"in vivo; iv, 2 mg/kg",0.32 L/kg
same,clearance,"in vivo; iv, 2 mg/kg",9.38 mL/min/kg
same,half-life,"in vivo; iv, 2 mg/kg",103 min
same,AUC(0-t),"in vivo; po, 5 mg/kg",5710 ng·h/mL
same,Cmax,"in vivo; po, 5 mg/kg",6480 ng/mL
same,bioavailability,"in vivo; po, 5 mg/kg",64.6%
same,half-life,"in vivo; po, 5 mg/kg",96.6 min
"COc1cc2sc(C(=O)C[C@H](C)C(=O)O)cc2c2cc(F)oc12 [Example 62, (S)-4-(2-fluoro-4-methoxythieno[3,2-e]benzofuran-7-yl)-2-methyl-4-oxobutanoic acid]",AUC(0-t),"[2]; iv, 2 mg/kg",4300 ng·h/mL
same,Vd,"[2]; iv, 2 mg/kg",0.49 L/kg
same,clearance,"[2]; iv, 2 mg/kg",7.56 mL/min/kg
same,half-life,"[2]; iv, 2 mg/kg",161 min
same,AUC(0-t),"[2]; po, 5 mg/kg",10200 ng·h/mL
same,Cmax,"[2]; po, 5 mg/kg",10100 ng/mL
same,bioavailability,"[2]; po, 5 mg/kg",92.9%
same,half-life,"[2]; po, 5 mg/kg",183 min
"COc1cc2cc(C(=O)CCC(=O)O)sc2cc1OC [MAS-2, reference compound]",EC50,Sting-HAQ,2590 nM
same,AUC(0-t),"[2]; iv, 2 mg/kg",1010 ng·h/mL
same,Vd,"[2]; iv, 2 mg/kg",0.343 L/kg
same,clearance,"[2]; iv, 2 mg/kg",33 mL/min/kg
same,half-life,"[2]; iv, 2 mg/kg",25.9 min
same,AUC(0-t),"[2]; po, 5 mg/kg",1530 ng·h/mL
same,Cmax,"[2]; po, 5 mg/kg",2810 ng/mL
same,bioavailability,"[2]; po, 5 mg/kg",61.2%
same,half-life,"[2]; po, 5 mg/kg",97.8 min
same,oral availability,[2]; mouse PK,61.23%
